≈ marks a conversion by molar mass, not a printed value.
Assays:
[1] = test system: Plasmodium falciparum; experiment: Antimalarial activity against KAF-156 resistant Plasmodium falciparum Dd2 harboring CARL I1139K mutant assessed as reduction in parasite growth incubated for 72 hrs by [3H]-hypoxanthine incorporation assay; format: functional, organism-based
[2] = test system: Plasmodium falciparum; experiment: Antimalarial activity against Plasmodium falciparum Dd2 assessed as reduction in parasite growth incubated for 72 hrs by [3H]-hypoxanthine incorporation assay; format: functional, organism-based
[3] = test system: Plasmodium falciparum; experiment: Antimalarial activity against MMV006833 resistant Plasmodium falciparum 3D7 harboring START1 N330K mutant assessed as reduction in parasite growth incubated for 72 hrs by LDH assay; format: functional, organism-based; details: 3D7, 72 h
[4] = test system: Plasmodium falciparum; experiment: Antimalarial activity against MMV006833 resistant Plasmodium falciparum 3D7 harboring START1 N309K mutant assessed as reduction in parasite growth incubated for 72 hrs by LDH assay; format: functional, organism-based; details: 3D7, 72 h
[5] = test system: Plasmodium falciparum; experiment: Antimalarial activity against MMV006833 resistant Plasmodium falciparum 3D7 assessed as reduction in parasite growth incubated for 72 hrs by LDH assay; format: functional, organism-based; details: 3D7, 72 h
[6] = test system: HepG2; experiment: Cytotoxicity against human HepG2 cells assessed as reduction in cell viability incubated for 48 hrs by Cell Titer-Glo assay; format: functional, cell-based; details: HepG2, 48 h
[7] = test system: Plasmodium falciparum; experiment: Antimalarial activity against asexual blood stage Plasmodium falciparum 3D7 assessed as reduction in parasite growth incubated for 72 hrs by LDH assay; format: functional, organism-based; details: 3D7, 72 h
[8] = Lipophilicity, LogD of compound in 1-Octanol and PBS at pH 7.4 at 7.5 uM incubated for 2 hrs shake flask method based LC-MS/MS analysis; format: physicochemical; details: 1-octanol/PBS
[9] = Kinetic aqueous solubility of the compound in PBS at pH 7.4 incubated for 2 hr under shaking condition by shake flask based UV reader plate analysis; format: physicochemical; details: read-out: Kinetic_solubility
[10] = test system: Plasmodium falciparum; experiment: Binding affinity to recombinant Plasmodium falciparum START1 assessed as change in enthalpy at 10 uM by isothermal titration calorimetry
[11] = Binding affinity to recombinant Plasmodium falciparum START1 assessed as dissociation constant by isothermal titration calorimetry
[12] = Intrinsic clearance in rat hepatocyte measured per 10^6 cells at 1 uM incubated upto 90 mins by LC-MS/MS analysis; format: ADME, cell-based; details: rat hepatocytes, read-out: CLH
[13] = Intrinsic clearance in human liver microsomes at 1 uM incubated upto 60 mins in presence of NADPH by LC-MS/MS analysis; format: ADME, Microsome; details: read-out: CLH
[14] = test system: Plasmodium falciparum; experiment: Binding affinity to recombinant Plasmodium falciparum START1 assessed as change in entropy at 10 uM by isothermal titration calorimetry
[15] = test system: Plasmodium falciparum; experiment: Antimalarial activity against MMV-048 resistant Plasmodium falciparum Dd2 harboring PI4K S743T mutant assessed as reduction in parasite growth incubated for 72 hrs by [3H]-hypoxanthine incorporation assay; format: functional, organism-based
[16] = test system: Plasmodium falciparum; experiment: Antimalarial activity against DDD-107498 resistant Plasmodium falciparum Dd2 harboring eEF2 Y86N mutant assessed as reduction in parasite growth incubated for 72 hrs by [3H]-hypoxanthine incorporation assay; format: functional, organism-based
[17] = test system: Plasmodium falciparum; experiment: Antimalarial activity against ELQ-300 resistant Plasmodium falciparum Dd2 harboring Cyt b I22L mutant assessed as reduction in parasite growth incubated for 72 hrs by [3H]-hypoxanthine incorporation assay; format: functional, organism-based

Row | Compound | EC50 [6] [nM] | EC50 [7] [nM] | further results
1 | CC1(C)c2nc(-c3ccc(F)cc3)c(Nc3ccc(F)cc3)n2CCN1C(=O)CN [GANAPLACIDE] |  |  | EC50 [1]: 1530 nM; EC50 [2]: 8 nM
2 | CCC(C)[C@H](Nc1ccc(Cl)c(S(=O)(=O)N2CCOCC2)c1)C(=O)Nc1ccc(F)c(Cl)c1 (stereo partly specified) | 10900 | 27 | EC50 [3]: 1600 nM; EC50 [4]: 2100 nM; EC50 [5]: 15 nM
3 | COC1CCN(S(=O)(=O)c2cc(NCC(=O)Nc3ccc(F)c(Cl)c3)ccc2Cl)CC1 | > 40000 | 1500 | 
4 | C[C@@H](Nc1ccc(Cl)c(S(=O)(=O)N2CCOCC2)c1)C(=O)Nc1cncc(Cl)c1 | > 40000 | 1100 | 
5 | O=C(CNc1ccc(Cl)c(S(=O)(=O)N2CCC(Cc3ccccc3)CC2)c1)Nc1ccc(F)c(Cl)c1 | 14000 | 270 | 
6 | Cc1ccc(NCC(=O)Nc2cccc(C(F)(F)F)c2)cc1S(=O)(=O)N1CCOCC1 | > 40000 | 3800 | 
7 | CN1CCC(NS(=O)(=O)c2cc(NCC(=O)Nc3ccc(F)c(Cl)c3)ccc2Cl)CC1 | > 40000 | > 10000 | 
8 | CC(C)[C@H](Nc1ccc(Cl)c(S(=O)(=O)N2CCOCC2)c1)C(=O)Nc1ccc(F)c(Cl)c1 | 30300 | 33 | EC50 [3]: 2100 nM; EC50 [4]: 2400 nM; EC50 [5]: 5 nM
9 | C[C@H](Nc1ccc(Cl)c(S(=O)(=O)N2CCOCC2)c1)C(=O)Nc1ccc(F)c(Cl)c1 | > 40000 | 22 | EC50 [3]: 1700 nM; logD at 2 h, 7.5 µM [8]: 3.9; solubility kinetic at 2 h [9]: 14 µM (≈ 6.67 µg/mL); deltaH [10]: -17.7 kcal/mol; EC50 [4]: 2100 nM; EC50 [5]: 3 nM; Kd [11]: 66 nM; hepatocyte CLint at 1 µM [12]: > 92 µL/min/1e6 cells; microsomal CLint at 1 µM [13]: > 462 µL/min/mg; -TdeltaS [14]: 7.8 kcal/mol
10 | C[C@H](Nc1ccc(Cl)c(S(=O)(=O)N2CCOCC2)c1)C(=O)Nc1cncc(Cl)c1 | > 40000 | 54 | EC50 [3]: 2600 nM; logD at 2 h, 7.5 µM [8]: 3.1; solubility kinetic at 2 h [9]: 77 µM (≈ 35.4 µg/mL); deltaH [10]: -14.4 kcal/mol; EC50 [4]: 7800 nM; EC50 [5]: 16 nM; Kd [11]: 119 nM; hepatocyte CLint at 1 µM [12]: 50 µL/min/1e6 cells; microsomal CLint at 1 µM [13]: > 462 µL/min/mg; -TdeltaS [14]: 4.8 kcal/mol
11 | CCC[C@H](Nc1ccc(Cl)c(S(=O)(=O)N2CCOCC2)c1)C(=O)Nc1ccc(F)c(Cl)c1 | 16300 | 140 | 
12 | O=C(CNc1ccc(Cl)c(S(=O)(=O)N2CCOCC2)c1)Nc1ccnc(Cl)c1 | > 40000 | 1100 | 
13 | CN(C)C1CCN(S(=O)(=O)c2cc(NCC(=O)Nc3ccc(F)c(Cl)c3)ccc2Cl)CC1 | > 40000 | > 10000 | 
14 | O=C(CNc1ccc(Cl)c(S(=O)(=O)N2CCOCC2)c1)Nc1cc(Cl)ccn1 | > 40000 | 2800 | 
15 | N#Cc1ccc(NCC(=O)Nc2ccc(F)c(Cl)c2)cc1S(=O)(=O)N1CCOCC1 | > 40000 | 750 | 
16 | CS(=O)(=O)c1ccc(-c2cnc(N)c(-c3ccc(C(F)(F)F)nc3)c2)cc1 [MMV-048] |  |  | EC50 [2]: 16 nM; EC50 [15]: 120 nM
17 | Cc1cc(Cl)c(S(=O)(=O)N2CCOCC2)cc1OCC(=O)Nc1ccc(F)c(Cl)c1 | > 40000 | 300 | 
18 | Cc1cc(Cl)c(S(=O)(=O)N2CCOCC2)cc1OCC(=O)NC1CCCCC1 | > 40000 | 1600 | 
19 | CC(=O)N1CCN(S(=O)(=O)c2cc(NCC(=O)Nc3ccc(F)c(Cl)c3)ccc2Cl)CC1 | > 40000 | 9100 | 
20 | CC1CCN(S(=O)(=O)c2cc(NCC(=O)Nc3ccc(F)c(Cl)c3)ccc2Cl)CC1 | 26800 | 260 | 
21 | O=C(CNc1ccc(F)c(S(=O)(=O)N2CCOCC2)c1)Nc1ccc(F)c(Cl)c1 |  | 400 | 
22 | O=C(CNc1ccc(Cl)c(S(=O)(=O)N2CCOCC2)c1)Nc1cccc(Cl)n1 | > 40000 | 8900 | 

Row | Compound | EC50 [6] [nM] | EC50 [7] [nM] | further results
23 | O=C(CNc1ccc(Cl)c(S(=O)(=O)N2CCOCC2)c1)Nc1cccc(Cl)c1 | > 40000 | 280 | 
24 | O=C(NCCN1CCCC1)c1cc(-c2ccc(CN3CCOCC3)cc2)nc2ccc(F)cc12 [CABAMIQUINE] |  |  | EC50 [16]: 850 nM
25 | CN1CCN(S(=O)(=O)c2cc(NCC(=O)Nc3ccc(F)c(Cl)c3)ccc2Cl)CC1 | > 40000 | > 10000 | 
26 | CC(C)CC(Nc1ccc(Cl)c(S(=O)(=O)N2CCOCC2)c1)C(=O)Nc1ccc(F)c(Cl)c1 (racemic) | 9500 | 850 | 
27 | O=C(Nc1ccc(F)c(Cl)c1)C(Nc1ccc(Cl)c(S(=O)(=O)N2CCOCC2)c1)c1ccccc1 (racemic) | 19300 | 6300 | 
28 | Cc1cc(Cl)c(S(=O)(=O)N2CCCC2)cc1OCC(=O)NC1CCCCC1 |  |  | Kd [11]: 42 nM
29 | Cc1ccc(NCC(=O)Nc2ccc(F)c(Cl)c2)cc1S(=O)(=O)N1CCOCC1 |  | 270 | 
30 | COc1ccc(NCC(=O)Nc2ccc(F)c(Cl)c2)cc1S(=O)(=O)N1CCOCC1 | > 40000 | 430 | 
31 | Cc1cc(Cl)c(S(=O)(=O)N2CCOCC2)cc1NCC(=O)Nc1ccc(F)c(Cl)c1 | > 40000 | 130 | 
32 | O=C(Nc1ccc(F)c(Cl)c1)C(Cc1ccccc1)Nc1ccc(Cl)c(S(=O)(=O)N2CCOCC2)c1 (racemic) | 15500 | 1400 | 
33 | Cc1cc(Cl)c(S(=O)(=O)N2CCOCC2)cc1NCC(=O)NC1CCCCC1 | > 40000 | 1000 | 
34 | C[C@@H](Nc1ccc(Cl)c(S(=O)(=O)N2CCOCC2)c1)C(=O)Nc1ccc(F)c(Cl)c1 | > 40000 | 320 | EC50 [3]: 4400 nM; deltaH [10]: -16.1 kcal/mol; EC50 [4]: 4300 nM; EC50 [5]: 99 nM; Kd [11]: 138 nM; -TdeltaS [14]: 6.7 kcal/mol
35 | Cc1ccc(NCC(=O)Nc2cccc(Cl)c2)cc1S(=O)(=O)N1CCOCC1 | > 40000 | 360 | 
36 | N#Cc1cccc(NC(=O)CNc2ccc(Cl)c(S(=O)(=O)N3CCOCC3)c2)c1 | > 40000 | 1500 | 
37 | O=C(Nc1ccc(F)c(Cl)c1)[C@@H]1CCCCN1c1ccc(Cl)c(S(=O)(=O)N2CCOCC2)c1 | 21000 | 420 | 
38 | Cc1ccc(NCC(=O)Nc2ccccc2)cc1S(=O)(=O)N1CCOCC1 | > 40000 | 2100 | 
39 | O=C(CNc1ccc(Cl)c(S(=O)(=O)N2CCOCC2)c1)Nc1cncc(Cl)c1 | > 40000 | 410 | 
40 | O=C(COc1ccc(Cl)c(S(=O)(=O)N2CCOCC2)c1)NC1CCCCC1 | > 40000 | 4300 | 
41 | O=C(COc1ccc(Cl)c(S(=O)(=O)N2CCOCC2)c1)Nc1ccc(F)c(Cl)c1 | > 40000 | 810 | 
42 | COc1cc2[nH]c(C)c(-c3ccc(Oc4ccc(OC(F)(F)F)cc4)cc3)c(=O)c2cc1Cl |  |  | EC50 [17]: 180 nM; EC50 [2]: 21 nM
43 | CCC(Nc1ccc(Cl)c(S(=O)(=O)N2CCOCC2)c1)C(=O)Nc1ccc(F)c(Cl)c1 (racemic) | 24500 | 11 | 
44 | O=C(CNc1ccc(Cl)c(S(=O)(=O)N2CCOCC2)c1)Nc1cccc(OC(F)(F)F)c1 | 19800 | 5000 | 

Reference: ChEMBL document CHEMBL5500343, “Activity refinement of aryl amino acetamides that target the P. falciparum STAR-related lipid transfer 1 protein” (Eur J Med Chem, 2024)
